{"source": "patent US10829796B2", "about": "“Bacteria identification and antimicrobial susceptibility test” (priority 2015, dated 2020)", "tested_on": "bacteria in clinical bovine mastitis milk samples", "assay": "Combined bacteria identification and antimicrobial susceptibility test (colour of wells, MIC) on clinical bovine mastitis milk samples", "type": "cell-based", "method": "Clinical bovine mastitis milk samples were collected by a vet clinic in South Island, New Zealand. Samples were stored in the freezer for several months and shipped frozen to the testing facility. In this Example, the term “clinical” means that dairy cows had clinical symptoms of an udder infection e.g. cow behaved unusual, milk clots, swollen udder among other typical symptoms. Testing was executed in microwell plate comprising of 24 wells (3×8 wells).\nIn addition, 20 ul of clinical mastitis sample was added to each well with a laboratory pipette.\nAbbreviations • 1. 80 ul GC+10 ul Tell: 80 ul Giolitti Cantoni base broth+10 ul Tellurite solution (1%); • 2. 80 ul TSB/Esc/Fer Cit: 80 ul Tryptic soy broth containing 0.25% Esculin and 0.125% Ammonium Ferric Citrate; • 3. 80 ul TSB/Esc/Fer Cit+10 ul Genta: 80 ul Tryptic soy broth containing 0.25% Esculin and 0.125% Ammonium Ferric Citrate+10 ul of Gentamycin solution 10 mg/ml; • 4. 80 ul McC/PR25: 80 ul MacConkey broth (single strength) containing 0.0125% phenol red; and • 5. 80 ul TSB/PR25: 80 ul Tryptic soy broth containing 0.0125% phenol red. Bacteria Identification\nColumns A to C and rows 1 and 2 were used for bacteria identification. A1: coagulase positive Staph; A2: Staphylococci; B1: Strep group D; B2: Strep group D; C1: general enrichment media (gram+ and gram-bacteria); C2: coliform bacteria.\nColumn A3 to A8: serial dilution of benzyl penicillin as potassium. Column B3 to B8: serial dilution of ceftiofur as hydrochloride. Column C3 to C8: serial dilution of cloxacillin as sodium. Antibiotic concentrations are listed as free form ranging between 4 ug/ml to 0.05 ug/ml.\nMinimum inhibitory substance concentration (MIC) is here defined as the concentration if a colour change occurs between two wells (one well remains red with drug concentration 1, the other one yellow with drug concentration 2, whereas drug concentration 1 is larger than drug concentration 2) then the MIC is the value of drug concentration 1.\nTable 21 indicates the microwell plate configuration #1; Drugs: Benzylpenicillin as potassium; Cloxacillin as sodium; Ceftiofur as hydrochloride; Drug concentration in each well (A3 to C8) is based on 80 μl composition+10 μl drug solution+20 μl clinical mastitis milk sample and equivalent to listed drug concentration in μg/ml; 20 ul of clinical bovine mastitis milk sample was added to each well (A1 to C8).\nIn addition, each well received one drop of clinical sample from a transfer pipette which was on average about 35 mg. This was determined through weighing the well plate prior and after the addition of clinical mastitis samples. This weight was then divided by 24.\n• 1. 80 ul GC+10 ul Tell: 80 ul Giolitti Cantoni base broth+10 ul Tellurite solution (1%); • 2. 80 ul TSB/Esc/Fer Cit: 80 ul Tryptic soy broth containing 0.25% Esculin and 0.125% Ammonium Ferric Citrate; • 3. 80 ul TSB/Esc/Fer Cit+10 ul Genta: 80 ul Tryptic soy broth containing 0.25% Esculin and 0.125% Ammonium Ferric Citrate+10 ul of Gentamycin solution 10 mg/ml; • 4. 80 ul McC/PR25: 80 ul MacConkey broth (single strength) containing 0.0125% phenol red; and • 5. 80 ul TSB/PR25: 80 ul Tryptic soy broth containing 0.0125% phenol red.\nColumns A to C and rows 1 and 2 were used for bacteria identification. A1: coagulase positive Staph; A2: Staphylococci; B1: Strep Group D; B2: -; C1: general enrichment media (gram+ and gram-); C2: coliform bacteria.\nColumn A3 to A8: serial dilution of benzyl penicillin as potassium. Drug concentrations given as free form ranging between 4 ug/ml to 0.05 ug/ml. Column B3 to B8: serial dilution of ceftiofur as hydrochloride. Drug concentrations given as free form ranging between 4 ug/ml to 0.05 ug/ml. Column C3 to C8: serial dilution of cloxacillin as sodium. Drug concentrations given as free form ranging between 4 ug/ml to 0.05 ug/ml.", "data": [{"compound": "Cc1onc(-c2ccccc2Cl)c1C(=O)N[C@@H]1C(=O)N2[C@@H]1SC(C)(C)[C@@H]2C(=O)O", "note": "[cloxacillin]", "values": [{"measurement": "Colour of media in each well", "setting": "ID 5 to 8, T = 0 h (prior incubation, reference), plate configuration #2, drug 1 μg/ml", "value": "red"}, {"measurement": "Colour of media in each well", "setting": "ID 5 to 8, T = 0 h (prior incubation, reference), plate configuration #2, drug 2 μg/ml", "value": "red"}, {"measurement": "Colour of media in each well", "setting": "ID 5 to 8, T = 0 h (prior incubation, reference), plate configuration #2, drug 4 μg/ml", "value": "red"}, {"measurement": "Colour of media in each well", "setting": "ID 6, T = 23h, 37° C., plate configuration #2, drug 0.05 μg/ml (Table 31)", "value": "yellow"}, {"measurement": "Colour of media in each well", "setting": "ID 6, T = 23h, 37° C., plate configuration #2, drug 0.1 μg/ml (Table 31)", "value": "yellow"}, {"measurement": "Colour of media in each well", "setting": "ID 6, T = 23h, 37° C., plate configuration #2, drug 0.5 μg/ml (Table 31)", "value": "yellow"}, {"measurement": "Colour of media in each well", "setting": "ID 6, T = 23h, 37° C., plate configuration #2, drug 1 μg/ml (Table 31)", "value": "yellow"}, {"measurement": "Colour of media in each well", "setting": "ID 6, T = 23h, 37° C., plate configuration #2, drug 2 μg/ml (Table 31)", "value": "yellow"}, {"measurement": "Colour of media in each well", "setting": "ID 6, T = 23h, 37° C., plate configuration #2, drug 4 μg/ml (Table 31)", "value": "yellow"}, {"measurement": "Colour of media in each well", "setting": "ID 6, T~7 h, 37° C., plate configuration #2, Table 35, drug 0.05 μg/ml", "value": "yellow"}, {"measurement": "Colour of media in each well", "setting": "ID 6, T~7 h, 37° C., plate configuration #2, Table 35, drug 0.1 μg/ml", "value": "yellow"}, {"measurement": "Colour of media in each well", "setting": "ID 6, T~7 h, 37° C., plate configuration #2, Table 35, drug 0.5 μg/ml", "value": "yellow"}, {"measurement": "Colour of media in each well", "setting": "ID 6, T~7 h, 37° C., plate configuration #2, Table 35, drug 1 μg/ml", "value": "yellow"}, {"measurement": "Colour of media in each well", "setting": "ID 6, T~7 h, 37° C., plate configuration #2, Table 35, drug 2 μg/ml", "value": "yellow"}, {"measurement": "Colour of media in each well", "setting": "ID 6, T~7 h, 37° C., plate configuration #2, Table 35, drug 4 μg/ml", "value": "yellow"}, {"measurement": "Colour of media in each well", "setting": "ID 6, T~11 h, 37° C., plate configuration #2, Table 35, drug 0.05 μg/ml", "value": "yellow"}, {"measurement": "Colour of media in each well", "setting": "ID 6, T~11 h, 37° C., plate configuration #2, Table 35, drug 0.1 μg/ml", "value": "yellow"}, {"measurement": "Colour of media in each well", "setting": "ID 6, T~11 h, 37° C., plate configuration #2, Table 35, drug 0.5 μg/ml", "value": "yellow"}, {"measurement": "Colour of media in each well", "setting": "ID 6, T~11 h, 37° C., plate configuration #2, Table 35, drug 1 μg/ml", "value": "yellow"}, {"measurement": "Colour of media in each well", "setting": "ID 6, T~11 h, 37° C., plate configuration #2, Table 35, drug 2 μg/ml", "value": "yellow"}, {"measurement": "Colour of media in each well", "setting": "ID 6, T~11 h, 37° C., plate configuration #2, Table 35, drug 4 μg/ml", "value": "yellow"}, {"measurement": "Colour of media in each well", "setting": "ID 6, T~23 h, 37° C., plate configuration #2, Table 35, drug 0.05 μg/ml", "value": "yellow"}, {"measurement": "Colour of media in each well", "setting": "ID 6, T~23 h, 37° C., plate configuration #2, Table 35, drug 0.1 μg/ml", "value": "yellow"}, {"measurement": "Colour of media in each well", "setting": "ID 6, T~23 h, 37° C., plate configuration #2, Table 35, drug 0.5 μg/ml", "value": "yellow"}, {"measurement": "Colour of media in each well", "setting": "ID 6, T~23 h, 37° C., plate configuration #2, Table 35, drug 1 μg/ml", "value": "yellow"}, {"measurement": "Colour of media in each well", "setting": "ID 6, T~23 h, 37° C., plate configuration #2, Table 35, drug 2 μg/ml", "value": "yellow"}, {"measurement": "Colour of media in each well", "setting": "ID 6, T~23 h, 37° C., plate configuration #2, Table 35, drug 4 μg/ml", "value": "yellow"}, {"measurement": "Colour of media in each well", "setting": "ID 7, T = 23h, 37° C., plate configuration #2, drug 0.05 μg/ml", "value": "yellow"}, {"measurement": "Colour of media in each well", "setting": "ID 7, T = 23h, 37° C., plate configuration #2, drug 0.1 μg/ml", "value": "yellow"}, {"measurement": "Colour of media in each well", "setting": "ID 7, T = 23h, 37° C., plate configuration #2, drug 0.5 μg/ml", "value": "red"}, {"measurement": "Colour of media in each well", "setting": "ID 7, T = 23h, 37° C., plate configuration #2, drug 1 μg/ml", "value": "red"}, {"measurement": "Colour of media in each well", "setting": "ID 7, T = 23h, 37° C., plate configuration #2, drug 2 μg/ml", "value": "red"}, {"measurement": "Colour of media in each well", "setting": "ID 7, T = 23h, 37° C., plate configuration #2, drug 4 μg/ml", "value": "red"}, {"measurement": "Colour of media in each well", "setting": "ID 8, T = 23 h, 37° C., plate configuration #2, drug 0.05 μg/ml", "value": "yellow"}, {"measurement": "Colour of media in each well", "setting": "ID 8, T = 23 h, 37° C., plate configuration #2, drug 0.1 μg/ml", "value": "yellow"}, {"measurement": "Colour of media in each well", "setting": "ID 8, T = 23 h, 37° C., plate configuration #2, drug 0.5 μg/ml", "value": "red"}, {"measurement": "Colour of media in each well", "setting": "ID 8, T = 23 h, 37° C., plate configuration #2, drug 1 μg/ml", "value": "red"}, {"measurement": "Colour of media in each well", "setting": "ID 8, T = 23 h, 37° C., plate configuration #2, drug 2 μg/ml", "value": "red"}, {"measurement": "Colour of media in each well", "setting": "ID 8, T = 23 h, 37° C., plate configuration #2, drug 4 μg/ml", "value": "red"}, {"measurement": "Colour of media in each well", "setting": "Table 24, sample ID 2, 22 hours at 37° C., plate configuration #1, row 3 of serial dilution 4 ug/ml to 0.05 ug/ml", "value": "red"}, {"measurement": "Colour of media in each well", "setting": "Table 24, sample ID 2, 22 hours at 37° C., plate configuration #1, row 4 of serial dilution 4 ug/ml to 0.05 ug/ml", "value": "red"}, {"measurement": "Colour of media in each well", "setting": "Table 24, sample ID 2, 22 hours at 37° C., plate configuration #1, row 5 of serial dilution 4 ug/ml to 0.05 ug/ml", "value": "red"}, {"measurement": "Colour of media in each well", "setting": "Table 24, sample ID 2, 22 hours at 37° C., plate configuration #1, row 6 of serial dilution 4 ug/ml to 0.05 ug/ml", "value": "red"}, {"measurement": "Colour of media in each well", "setting": "Table 24, sample ID 2, 22 hours at 37° C., plate configuration #1, row 7 of serial dilution 4 ug/ml to 0.05 ug/ml", "value": "yellow"}, {"measurement": "Colour of media in each well", "setting": "Table 24, sample ID 2, 22 hours at 37° C., plate configuration #1, row 8 of serial dilution 4 ug/ml to 0.05 ug/ml", "value": "yellow"}, {"measurement": "MIC", "setting": "clinical sample ID 1 (streptococci group D), 37° C. for 22 hours, plate configuration #1", "value": 0.5, "unit": "mg/L"}, {"measurement": "MIC", "setting": "clinical sample ID 2 (streptococci group D, also coagulase positive Staph), 37° C. for 22 hours, plate configuration #1", "value": 0.5, "unit": "mg/L"}, {"measurement": "MIC", "setting": "clinical sample ID 4 (coagulase positive Staph), 37° C. for 22 hours, plate configuration #1", "value": 0.5, "unit": "mg/L"}, {"measurement": "MIC", "setting": "clinical sample ID 5 (streptococci group D), 37° C. for 23 hours, plate configuration #2", "value": 0.5, "unit": "mg/L"}, {"measurement": "MIC", "setting": "clinical sample ID 7 (coagulase positive Staph), 37° C. for 23 hours, plate configuration #2", "value": 0.5, "unit": "mg/L"}, {"measurement": "MIC", "setting": "clinical sample ID 8 (coagulase negative Staph and Streptococci group D), 37° C. for 23 hours, plate configuration #2", "value": 0.5, "unit": "mg/L"}]}]}
